US6455561B1, “Heterocyclic compounds and their therapeutic use” (Darwin Discovery, Ltd., priority 2000, dated 2002)

Test system: eosinophilia
Assay: Guinea pig lung model (inhibition of eosinophilia)
Assay type: in vivo
Details: dosed at 3 mg/kg
Experimental: Activity in a guinea pig lung model is measured using the procedures described by Mauser et al, Am. Rev. Respir. Dis. 148:1623 (1993), and Am. J. Respir. Crit. Care Med. 152:467 (1995).

COCc1cc2c(C(=O)Nc3c(C)noc3C)ccc(OC)c2o1 [Example 10, 7-Methoxy-2-methoxymethylbenzofuran-4-carboxylic Acid (3,5-dimethylisoxazol-4-yl)-amide]
inhibition of eosinophilia: 35%
